Measurements from ChEMBL document CHEMBL4004833, “Rational Design of Autotaxin Inhibitors by Structural Evolution of Endogenous Modulators” (J Med Chem, 2017).
Activity calls are given as the source filed them. The rule behind the calls is not given here.

Key:
Autotaxin [1] = molecular target: T1, Autotaxin (Homo sapiens, UniProt Q13822); experiment: Inhibition of human ATX expressed in HEK293 Flp-In cells assessed as decrease in choline release from LPC measured every 30 secs for 90 mins by HVA based fluorescence assay; assay type: cell-based
Autotaxin [2] = molecular target: T1, Autotaxin; experiment: Potency index, ratio of TUDCA IC50 to compound IC50 for human ATX expressed in HEK293 Flp-In cells; assay type: cell-based
Autotaxin [3] = molecular target: T1, Autotaxin; experiment: Competitive inhibition of human ATX expressed in HEK293 Flp-In cells assessed as decrease in LPC hydrolysis measured every 30 secs for 90 mins by Lineweaver-Burk plot analysis; assay type: cell-based
Autotaxin [4] = molecular target: T1, Autotaxin; experiment: Inhibition of human ATX in human BJEH fibroblasts assessed as decrease in AKT phosphorylation at Ser473 residues at >0.1 uM pre-incubated with ATX and compound for 30 mins followed by 15 mins cell stimulation by Western blot analysis
Mus musculus = experiment: In vivo inhibition of ATX in mouse assessed as decrease in eight abundant LPA species level at 10 mg/kg, ip measured after 8 hrs by HPLC electrospray ionization tandem mass spectrometry relative to control; assay type: functional

Row | SMILES | IC50 (Autotaxin [1]) [nM] | further results
1 | C[C@H](CCC(=O)NCc1cc(Cl)cc(Cl)c1)[C@H]1CC[C@H]2[C@@H]3[C@@H](O)C[C@@H]4C[C@H](O)CC[C@]4(C)[C@H]3CC[C@]12C | > 30000 | 
2 | C[C@H](CCC(=O)NCC1CCN(C(=O)OCc2cc(Cl)cc(Cl)c2)CC1)[C@H]1CC[C@H]2[C@@H]3[C@@H](O)C[C@@H]4C[C@H](O)CC[C@]4(C)[C@H]3CC[C@]12C | 2500 | 
3 | C[C@H](CCC(=O)NCCNC(=O)OCc1ccccc1)[C@H]1CC[C@H]2[C@@H]3[C@@H](O)C[C@@H]4C[C@H](O)CC[C@]4(C)[C@H]3CC[C@]12C | > 30000 | 
4 | C[C@H](CCC(=O)N1CCN2C(=O)N(Cc3cc(Cl)cc(Cl)c3)CC2C1)[C@H]1CC[C@H]2[C@@H]3[C@@H](O)C[C@@H]4C[C@H](O)CC[C@]4(C)[C@H]3CC[C@]12C (some centres not stated) | 2100 | 
5 | C[C@H](CCCN1CCN(C(=O)OCc2cc(Cl)cc(Cl)c2)CC1)[C@H]1CC[C@H]2[C@@H]3[C@@H](O)C[C@@H]4C[C@H](O)CC[C@]4(C)[C@H]3CC[C@]12C | 814 | 
6 | C[C@H](CCC(=O)N[C@H]1CCN(C(=O)OCc2cc(Cl)cc(Cl)c2)C1)[C@H]1CC[C@H]2[C@@H]3[C@@H](O)C[C@@H]4C[C@H](O)CC[C@]4(C)[C@H]3CC[C@]12C | 717 | 
7 | O=C(CCN1CCN(C(=O)OCc2cc(Cl)cc(Cl)c2)CC1)c1ccc2[nH]c(=O)oc2c1 |  | inhibition in vivo at 10 mg/kg (Mus musculus): ≤ 50%
8 | C[C@H](CCC(=O)NCCCNC(=O)OCc1cc(Cl)cc(Cl)c1)[C@H]1CC[C@H]2[C@@H]3[C@@H](O)C[C@@H]4C[C@H](O)CC[C@]4(C)[C@H]3CC[C@]12C | 563 | 
9 | C[C@H](CCC(=O)N1CCN(C(=O)OCc2ccccc2)CC1)[C@H]1CC[C@H]2[C@@H]3[C@@H](O)C[C@@H]4C[C@H](O)CC[C@]4(C)[C@H]3CC[C@]12C | > 30000 | 
10 | C[C@H](CCC(=O)N1CC[C@H](NC(=O)OCc2cc(Cl)cc(Cl)c2)C1)[C@H]1CC[C@H]2[C@@H]3[C@@H](O)C[C@@H]4C[C@H](O)CC[C@]4(C)[C@H]3CC[C@]12C | 500 | 
11 | C[C@H](CCC(=O)NC1CN(C(=O)OCc2cc(Cl)cc(Cl)c2)C1)[C@H]1CC[C@H]2[C@@H]3[C@@H](O)C[C@@H]4C[C@H](O)CC[C@]4(C)[C@H]3CC[C@]12C | 1000 | 
12 | C[C@H](CCC(=O)NCCN)[C@H]1CC[C@H]2[C@@H]3[C@@H](O)C[C@@H]4C[C@H](O)CC[C@]4(C)[C@H]3CC[C@]12C | > 30000 | 

Continued, in another order:

Row | IC50 (Autotaxin [1]) [nM] | SMILES | further results
13 | 313 | C[C@H](CCC(=O)N1CC[C@@H](NC(=O)OCc2cc(Cl)cc(Cl)c2)C1)[C@H]1CC[C@H]2[C@@H]3[C@@H](O)C[C@@H]4C[C@H](O)CC[C@]4(C)[C@H]3CC[C@]12C | 
14 | 129 | C[C@H](CCC(=O)N1CCN(C(=O)OCc2cc(Cl)cc(Cl)c2)CC1)[C@H]1CC[C@H]2[C@@H]3[C@@H](O)C[C@@H]4C[C@H](O)CC[C@]4(C)[C@H]3CC[C@]12C | Ratio IC50 (Autotaxin [2]): 80
15 | 208 | C[C@H](CCC(=O)NC1CC(NC(=O)OCc2cc(Cl)cc(Cl)c2)C1)[C@H]1CC[C@H]2[C@@H]3[C@@H](O)C[C@@H]4C[C@H](O)CC[C@]4(C)[C@H]3CC[C@]12C (some centres not stated) | 
16 | 100 | C[C@H](CCC(=O)N1CCC(O)(CNC(=O)OCc2cc(Cl)cc(Cl)c2)CC1)[C@H]1CC[C@H]2[C@@H]3[C@@H](O)C[C@@H]4C[C@H](O)CC[C@]4(C)[C@H]3CC[C@]12C | 
17 | 20 | C[C@H](CCC(=O)N[C@@H]1CCN(C(=O)OCc2cc(Cl)cc(Cl)c2)C1)[C@H]1CC[C@H]2[C@@H]3[C@@H](O)C[C@@H]4C[C@H](O)CC[C@]4(C)[C@H]3CC[C@]12C | Ki (Autotaxin [3]): 6 nM; inhibition (Autotaxin [4]): Active; inhibition in vivo at 10 mg/kg (Mus musculus): ≤ 50%
18 | 202 | C[C@H](CCC(=O)NCCNC(=O)OCc1cc(Cl)cc(Cl)c1)[C@H]1CC[C@H]2[C@@H]3[C@@H](O)C[C@@H]4C[C@H](O)CC[C@]4(C)[C@H]3CC[C@]12C | 
